This passage reports Relative proteasome activity and Extension of lifespan results from patent US20110294876A1, “CYCLOHEXYL CARBAMATE COMPOUNDS AS ANTI-AGEING ACTIVES” (SYMRISE AG, priority 2010, published 2011).

The target of one test is isolated 20S proteasome (Homo sapiens, UniProt P28074). The experiment in a line: Proteasome activity using isolated proteasome (chymotrypsin-like activity, MCA liberation). The test is classed as biochemical. On the set-up: unit of the concentration uncertain. Particulars: relative to DMSO control (0 (unit uncertain) = 100%), mean of 3 independent tests. The text has this: The method used herein to investigate the proteasome stimulating activity of a substance is based on the measurement of the 20S proteasome core activity. To detect this activity, the isolated 20S proteasome reacts with an oligopeptide, which is bound to a fluorochrome. With its chymotrypsin-like proteolytic activity, the proteasome degrades the oligopeptide and liberates the fluorochrome. For this assay 4-methyl-coumaryl-amide (MCA) was used as fluorochrome. Liberation of MCA correlates linearly with the proteasome activity. MCA was detected using an excitation of 360 nm and an emission of 460 nm.
For interpretation, the measured proteasome activities/intensities of fluorescence were compared with pure MCA standards at distinct concentrations.
Two different controls were used for each assay. One “ordinary” control (C) which consisted of isolated proteasome alone, and a DMSO-control (DC). DC was necessary because all substances were diluted in DMSO. Proteasome activity was calculated relative to DMSO control (0 mM).

Test [1] concerns proteasome in HaCaT cell lysate. The experiment in a line: Proteasome activity using cell lysates of HaCaT cells (MCA liberation). Format: biochemical, human. On the set-up: unit of the concentration uncertain. Particulars: HaCaT cellular extracts, relative to DMSO control (0 (unit uncertain) = 100%), mean of 3 independent tests. The procedure: To determine proteasome activity in cell lysate, human keratinocyte cell lines (HaCaT cells) were seeded out in Petri-dishes (area: 22.1 cm^2) and harvested when they reached confluence. Isolation of the pure cell lysate included cell washing, incubation and homogenization in lysis buffer (250 mM sucrose, 25 mM HEPES (4-(2-hydroxyethyl)-1-piperazineethanesulfonic acid), 10 mM MgCl2*6H2O, 1.3 mM EDTA) and final cell lysis with liquid nitrogen. Determination of proteasome activity is based on the liberation of MCA and the corresponding fluorescence like described above in example 3.1. Proteasome activity was calculated relative to DMSO control (0 mM).

The subject of another test is fish. Conditions: cited from earlier work.
The subject of a further test is yeast. Conditions: cited from earlier work.

Consider `CC(C)NC(=O)O[C@@H]1C[C@H](C)CC[C@H]1C(C)C` [BIO1272, Isopropyl-carbamic acid (1R,2S,5R)-2-isopropyl-5-methylcyclohexyl ester], for which the Relative proteasome activity is on record as 125% on isolated 20S proteasome (5 (unit uncertain)); 210% on isolated 20S proteasome (10 (unit uncertain)); 250% at isolated 20S proteasome (20 (unit uncertain)); 105% in test [1] (5 (unit uncertain)); 120% in test [1] (10 (unit uncertain)); 140% in test [1] (20 (unit uncertain)).

Consider `Oc1ccc(C=Cc2cc(O)cc(O)c2)cc1` [Resveratrol], for which the Extension of lifespan is on record as 60% in the test with fish and 70% in the test with yeast.
